Our source for the TGI and GI50 values is PubChem BioAssay (NCI).

Holding throughout (experiment): growth of human tumour cells (NCI), 48 h
The test system of experiment [1] is HOP-92 NSCLC.
The test system of experiment [2] is UACC-62 melanoma.
The test system of experiment [3] is MOLT-4 leukemia.
The test system of experiment [4] is KM12 colon.
Experiment [5] relates to DU-145 prostate.
Experiment [6] deals with NCI-H522 lung.
The subject of experiment [7] is ACHN renal.
For experiment [8], the system named is COLO 205 colon.
For experiment [9], the system named is SK-MEL-28 melanoma.
The subject of experiment [10] is MDA-MB-435.

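Grown in 96-well plates, cells were treated for 48 hours with each compound at five concentrations. Insufficient inhibition: endpoint recorded as highest concentration tested. GI50: concentration for 50% inhibition of growth. TGI: concentration producing complete growth inhibition.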

Take `COc1ccc(C2c3cc4c(cc3OC(NCCO)C2C)OCO4)cc1` (stereo not given): the TGI in experiment [1] was 86.1 µM; in experiment [2], more than 100 µM; in experiment [3] it was 50 µM; in experiment [4], more than 100 µM; in experiment [5] it was more than 100 µM; in experiment [6] it was 47.8 µM. Also, the TGI turned out to be 93.1 µM in [7], 36.2 µM in experiment [8], 69.1 µM in experiment [9] and 59.7 µM in experiment [10].
On to `C[C@H]1[C@H](C)CC[C@]2(C(=O)OC3OC(CO)C(O)C(O)C3O)CC[C@]3(C)C(=CC[C@@H]4[C@@]5(C)C[C@H]6OC(=O)c7cc(O)c(O)c(O)c7-c7c(cc(O)c(O)c7O)C(=O)O[C@@H]6C(CO)(CO)[C@@H]5CC[C@]43C)[C@H]12` (stereo not given in full), for which the TGI was more than 100 µM in experiment [1]; more than 100 µM in experiment [2]; more than 74.4 µM in experiment [3]; more than 100 µM in experiment [4]; more than 100 µM in [5]; 38.6 µM in [6]. Besides, the TGI is more than 100 µM in experiment [7], more than 100 µM in [8], more than 100 µM in [9] and 36.2 µM in [10].
In the case of `COc1nc2c(N3CCCC3)nc(N3CCNCC3)nc2nc1NCc1ccccc1`, the TGI in experiment [1] is 5.2 µM; in [2], 3.29 µM; in [3] it was 4.65 µM; in [4], 4.68 µM; in [5], 12.3 µM; in experiment [6], 2.54 µM. Besides, the TGI came out at 7.01 µM in [7], 1.98 µM in experiment [8], 3.92 µM in experiment [9] and 2.95 µM in experiment [10].
Take `COC1C(O)C(O[C@H]2CC[C@@]3(C)C(CC[C@@H]4[C@@H]3CC[C@]3(C)[C@@H](C(C)OC5OC(CO)C(O)C(O)C5O)CC[C@]43O)C2)OC(C)C1OC1OC(CO)C(O)C(O)C1O` (stereo not given in full): the TGI in experiment [1], in [2], in experiment [3], in experiment [4], in experiment [5] and in [6] was more than 100 µM throughout. In addition, the TGI in experiment [7], in [8], in experiment [9] and in experiment [10] was more than 100 µM in each case.
`Clc1nncc2sc(-c3ccccc3)nc12`: the TGI in [1] is 24 µM; in [2] it was 46.4 µM; in experiment [3], more than 97.2 µM; in [4], more than 72.8 µM; in experiment [5], 31.8 µM; in [6] it was 44.8 µM. The TGI in [7] was more than 84.9 µM; in experiment [8] it was more than 86.5 µM; in [9] it was more than 50.8 µM; in experiment [10], 49.6 µM.
`C[C@H]1OC(=O)[C@@H]2N=NN(Cc3ccccc3)[C@H]12`: the TGI in experiment [1], in [2], in [3], in experiment [4], in experiment [5] and in [6] was more than 100 µM each time. Moreover, the TGI in [7], in experiment [8], in [9] and in [10] was more than 100 µM in each case.
`CN1N=C(c2ccncc2)OC1c1ccccc1F` (stereo not given): the TGI in experiment [1], in experiment [2], in experiment [3], in experiment [4], in [5] and in [6] was more than 100 µM each time. The TGI in experiment [7], in experiment [8], in experiment [9] and in [10] was more than 100 µM throughout.
For the compound `O=C(/C=C/c1ccc2c(c1)OCO2)Cc1nc2ccccc2[nH]c1=O`, the TGI in experiment [1] is 73.3 µM; in [2], more than 100 µM; in experiment [3], more than 100 µM; in experiment [4], more than 100 µM; in experiment [5], 71.6 µM; in [6] it was more than 100 µM. The TGI is 74.3 µM in experiment [7], more than 100 µM in [8], 61.5 µM in [9] and 46.1 µM in experiment [10].
As to `O=S1SC(=S)C2C=CC=CC21` (stereo not given), the TGI in [1], in experiment [2], in [3], in [4], in experiment [5] and in experiment [6] was more than 100 µM in each case. The TGI in experiment [7], in experiment [8], in experiment [9] and in experiment [10] was more than 100 µM throughout.
For `COc1ccc(Oc2cnn(C(Br)(Br)C(C)=O)c(=O)c2Br)cc1`, the TGI in [1] is 29.4 µM; in experiment [2], 29.6 µM; in [3] it was 3.56 µM; in experiment [4], 31.4 µM; in experiment [5] it was 42.2 µM; in experiment [6], 14.7 µM. The TGI in experiment [7] is 26.4 µM; in experiment [8], 26.9 µM; in [9], 32.4 µM; in [10] it was 23.4 µM.
Consider `O=S1(=O)c2cnccc2NC(=NCc2ccccc2)N1c1ccccc1`, for which the TGI in experiment [1], in [2], in [3], in experiment [4], in experiment [5] and in [6] was more than 100 µM in each case. Also, the TGI in experiment [7], in experiment [8], in experiment [9] and in [10] was more than 100 µM throughout.
Regarding `CN(C)CCCNC(=O)c1c(O)c2ccccc2n(C)c1=O`, the TGI in [1] is 80.7 µM; in experiment [2] it was more than 100 µM; in [3] it was more than 100 µM; in [4], more than 100 µM; in [5], more than 100 µM; in experiment [6], more than 100 µM. Further, the TGI in [7], in [8], in experiment [9] and in experiment [10] was more than 100 µM throughout.
Regarding `COc1ccc(-n2nc(C)c3c(Nc4ccc(NC(=O)Nc5ccc(Cl)c(C(F)(F)F)c5)cc4)ncnc32)cc1`, the GI50 in [1] was 1.81 µM; in experiment [2] it was 1.78 µM; in experiment [3] it was 1.82 µM; in [4] it was 1.48 µM; in experiment [5], 3.33 µM; in experiment [6] it was 1.71 µM. In addition, the GI50 in experiment [7] was 1.64 µM; in [8], 1.71 µM; in experiment [9], 1.8 µM; in [10] it was 1.92 µM. The TGI was 5.2 µM in experiment [1]; 3.74 µM in experiment [2]; 7.49 µM in experiment [3]; 3.96 µM in experiment [4]; more than 100 µM in [5]; 3.65 µM in experiment [6]. In addition, the TGI in [7] was 6.86 µM; in experiment [8], 3.64 µM; in experiment [9], 3.98 µM; in [10], 4.17 µM.
Consider `C[C@]12CC[C@@H]3c4ccc(O)cc4CC[C@H]3[C@@H]1C/C(=C\c1ccc(C#N)cc1)C2=O`, for which the TGI in experiment [1] is 89.1 µM; in experiment [2], more than 100 µM; in [3], more than 100 µM; in experiment [4], more than 100 µM; in [5] it was more than 100 µM; in experiment [6], 41.6 µM. Moreover, the TGI in experiment [7] was more than 100 µM; in [8] it was more than 100 µM; in experiment [9] it was more than 100 µM; in experiment [10], 76.8 µM.
Take `Cc1cc(O)c(-c2cc(O)c(C)cc2O)cc1O`: the TGI in [1] came to 6.22 µM; in [2], 29.8 µM; in [3], 5.21 µM; in experiment [4], 27.5 µM; in experiment [5], 28.5 µM; in [6], 12.2 µM. Further, the TGI in [7] came out at 13.7 µM; in experiment [8], 22.6 µM; in experiment [9], 22.7 µM; in [10] it was 9.32 µM.
With `O=C(O)CN(CC(=O)O)C(C(=O)O)c1ccccc1` (stereo not given), the TGI in experiment [1], in experiment [2], in experiment [3], in experiment [4], in experiment [5] and in experiment [6] was more than 100 µM throughout. The TGI in [7], in experiment [8], in experiment [9] and in experiment [10] was more than 100 µM each time.
For `Cc1ccc(NC(=O)/C(Cc2nc3ccc([N+](=O)[O-])cc3[nH]c2=O)=N\NC(=O)C[n+]2ccccc2)c(C)c1`, the TGI is more than 100 µM in experiment [1]; more than 100 µM in experiment [2]; 88 µM in experiment [3]; more than 100 µM in [4]; more than 100 µM in experiment [5]; 61.6 µM in experiment [6]. The TGI in experiment [7] is 47.6 µM; in experiment [8], more than 100 µM; in experiment [9] it was more than 100 µM; in experiment [10], more than 100 µM.
`O=C(OCC1OC(n2nc(Cn3nnc(-c4cccnc4)n3)n(-c3cccc4ccccc34)c2=S)C(OC(=O)c2ccccc2)C1OC(=O)c1ccccc1)c1ccccc1` (stereo not given): the TGI in [1], in experiment [2], in [3], in [4], in experiment [5] and in [6] was more than 100 µM each time. Also, the TGI in experiment [7], in experiment [8], in experiment [9] and in experiment [10] was more than 100 µM each time.
For `C[n+]1c(/C=C/c2ccc(O)c3ncccc23)[se]c2ccccc21`, the TGI in [1] was 22.3 µM; in experiment [2] it was 18.3 µM; in [3], more than 22.7 µM; in experiment [4], 25.2 µM; in [5], 16.8 µM; in experiment [6], 24.8 µM. Moreover, the TGI is 8.54 µM in experiment [7], 22.2 µM in experiment [8], 52.9 µM in [9] and 28.4 µM in experiment [10].
For the compound `O=C1C=CC(=O)C(CNc2ccc(C(=O)OCc3ccccc3)cc2)=C1`, the TGI in experiment [1] is 3.8 µM; in [2], 22.6 µM; in experiment [3] it was more than 100 µM; in [4], 23.4 µM; in experiment [5], 25.1 µM; in experiment [6], 2.87 µM. The TGI came out at 12.9 µM in experiment [7], 3.79 µM in experiment [8], 17.4 µM in experiment [9] and 18.7 µM in [10].
With `CC1=NNC(=O)C1C1CC(c2c[nH]c3ccccc23)=NN=C1Cl` (stereo not given), the TGI was more than 100 µM in experiment [1]; more than 100 µM in experiment [2]; 75.8 µM in experiment [3]; 69.3 µM in experiment [4]; more than 100 µM in experiment [5]; more than 100 µM in experiment [6]. For the same compound, the TGI in [7] is more than 100 µM; in experiment [8], 80.6 µM; in [9], more than 100 µM; in experiment [10], more than 100 µM.
For the compound `CC(C)C1=C(O)C2=C(C(=O)C1=O)C1(C)CCCC(C)(C)C1C(O)C2OC=O` (stereo not given), the TGI in [1] came out at 20.1 µM; in experiment [2], 19.4 µM; in experiment [3], 6.91 µM; in [4], 24.7 µM; in experiment [5] it was 19.1 µM; in [6], 27.5 µM. The TGI in experiment [7] was 13.2 µM; in [8] it was 12.5 µM; in [9], 13.1 µM; in experiment [10] it was 11.8 µM.
Regarding `CC(C)[Si](OC/C(=C/COC(C)(C)C)[C@H]1CC=C(C(=O)c2ccccc2N2CN(C)C(=O)N(C)C2)C1)(C(C)C)C(C)C`, the TGI was found to be 25.1 µM in experiment [1]; 23.3 µM in experiment [2]; 1.67 µM in [3]; 44.4 µM in experiment [4]; 29.9 µM in [5]; 19.7 µM in experiment [6]. Moreover, the TGI in [7] worked out at 28.6 µM; in experiment [8], 31 µM; in experiment [9] it was 12.9 µM; in experiment [10] it was 30.3 µM.
As to `COc1ccc2c(c1)c(=O)c1c(NCCNCCO)ccc3c(=O)n(CCN(C)C)c(=O)n2c31`, the TGI in [1] was 0.775 µM; in experiment [2], 0.293 µM; in experiment [3], more than 100 µM; in experiment [4] it was 0.831 µM; in experiment [5], 0.31 µM; in experiment [6], 0.0868 µM. The TGI in experiment [7] was determined as 1.49 µM; in experiment [8], 0.247 µM; in experiment [9], 1.34 µM; in experiment [10], 0.305 µM.
Turning to `CCN(CCCl)c1cc(CN(C)C)cc(NC(=O)c2ccc(C(=O)Nc3cccc(CN(C)C)c3)cc2)c1`, the TGI came out at 3.66 µM in experiment [1]; 4.07 µM in experiment [2]; 0.904 µM in [3]; 3.69 µM in [4]; 42.6 µM in experiment [5]; 0.042 µM in [6]. For the same compound, the TGI was 10.7 µM in [7], 2.41 µM in experiment [8], 5.2 µM in experiment [9] and 0.665 µM in [10].
